EC50, Activity and IC50 data for 7 molecules are collected here from ChEMBL document CHEMBL5625231, “Targeting autophagy with small-molecule activators for potential therapeutic purposes” (Eur J Med Chem, 2023).

The structures appear in SMILES notation.

What is called EC50 is the concentration needed to bring the measured effect to its halfway point. Broadly, the IC50 is the concentration needed to halve the response being measured. Read a high IC50 as weaker potency.

Assay [1] can be described thus: Activation of AMPK in rat hepatocyte using SAMS as substrate incubated for 30 mins in presence of [gamma-33P]ATP. The assay is classed as cell-based.
The target in the next assay is T1, Transcription factor EB (Homo sapiens, UniProt P19484).
T1 sequence (P19484 whole entry): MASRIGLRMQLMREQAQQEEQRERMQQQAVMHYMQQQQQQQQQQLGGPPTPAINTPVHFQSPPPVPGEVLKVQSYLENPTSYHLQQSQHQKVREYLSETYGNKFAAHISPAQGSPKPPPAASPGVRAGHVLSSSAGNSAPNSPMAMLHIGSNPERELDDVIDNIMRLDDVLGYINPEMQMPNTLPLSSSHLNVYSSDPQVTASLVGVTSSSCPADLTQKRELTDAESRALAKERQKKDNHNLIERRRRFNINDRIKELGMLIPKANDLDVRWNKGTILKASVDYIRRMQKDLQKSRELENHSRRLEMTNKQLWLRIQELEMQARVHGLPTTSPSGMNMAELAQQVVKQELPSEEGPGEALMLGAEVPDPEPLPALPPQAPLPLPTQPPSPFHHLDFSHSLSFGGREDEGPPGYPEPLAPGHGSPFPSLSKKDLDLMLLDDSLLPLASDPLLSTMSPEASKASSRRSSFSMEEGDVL
Briefly: Binding affinity to full length N-terminal his6-tagged human TFEB expressed in Escherichia coli by isothermal titration calorimetry analysis.

The target in another assay is Forkhead box protein O1 (Homo sapiens, UniProt Q12778). Briefly: Activation of FoxO1(unknown origin).
Forkhead box protein O1, sequence (Q12778 whole entry): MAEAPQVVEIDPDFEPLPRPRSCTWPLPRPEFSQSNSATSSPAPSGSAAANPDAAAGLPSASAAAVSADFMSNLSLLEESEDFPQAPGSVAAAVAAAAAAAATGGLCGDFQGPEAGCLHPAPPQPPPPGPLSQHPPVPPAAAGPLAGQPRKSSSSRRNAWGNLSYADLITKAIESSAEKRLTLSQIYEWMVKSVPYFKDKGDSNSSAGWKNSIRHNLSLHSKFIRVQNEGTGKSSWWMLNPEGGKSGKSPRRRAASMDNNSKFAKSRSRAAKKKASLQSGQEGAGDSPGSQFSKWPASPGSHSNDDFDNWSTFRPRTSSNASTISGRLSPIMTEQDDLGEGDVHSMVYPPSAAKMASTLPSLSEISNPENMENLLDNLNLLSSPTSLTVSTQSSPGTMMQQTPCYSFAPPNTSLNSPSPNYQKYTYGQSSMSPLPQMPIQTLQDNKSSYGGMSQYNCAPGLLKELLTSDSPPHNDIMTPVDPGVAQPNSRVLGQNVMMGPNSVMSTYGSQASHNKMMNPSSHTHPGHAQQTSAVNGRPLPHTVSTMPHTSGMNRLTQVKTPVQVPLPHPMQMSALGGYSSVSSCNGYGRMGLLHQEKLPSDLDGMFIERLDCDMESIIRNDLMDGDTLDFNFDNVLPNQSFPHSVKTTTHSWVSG
Assay [2] has as its target T2, Serine/threonine-protein kinase ULK1 (Homo sapiens) (UniProt O75385).
T2 sequence (whole entry): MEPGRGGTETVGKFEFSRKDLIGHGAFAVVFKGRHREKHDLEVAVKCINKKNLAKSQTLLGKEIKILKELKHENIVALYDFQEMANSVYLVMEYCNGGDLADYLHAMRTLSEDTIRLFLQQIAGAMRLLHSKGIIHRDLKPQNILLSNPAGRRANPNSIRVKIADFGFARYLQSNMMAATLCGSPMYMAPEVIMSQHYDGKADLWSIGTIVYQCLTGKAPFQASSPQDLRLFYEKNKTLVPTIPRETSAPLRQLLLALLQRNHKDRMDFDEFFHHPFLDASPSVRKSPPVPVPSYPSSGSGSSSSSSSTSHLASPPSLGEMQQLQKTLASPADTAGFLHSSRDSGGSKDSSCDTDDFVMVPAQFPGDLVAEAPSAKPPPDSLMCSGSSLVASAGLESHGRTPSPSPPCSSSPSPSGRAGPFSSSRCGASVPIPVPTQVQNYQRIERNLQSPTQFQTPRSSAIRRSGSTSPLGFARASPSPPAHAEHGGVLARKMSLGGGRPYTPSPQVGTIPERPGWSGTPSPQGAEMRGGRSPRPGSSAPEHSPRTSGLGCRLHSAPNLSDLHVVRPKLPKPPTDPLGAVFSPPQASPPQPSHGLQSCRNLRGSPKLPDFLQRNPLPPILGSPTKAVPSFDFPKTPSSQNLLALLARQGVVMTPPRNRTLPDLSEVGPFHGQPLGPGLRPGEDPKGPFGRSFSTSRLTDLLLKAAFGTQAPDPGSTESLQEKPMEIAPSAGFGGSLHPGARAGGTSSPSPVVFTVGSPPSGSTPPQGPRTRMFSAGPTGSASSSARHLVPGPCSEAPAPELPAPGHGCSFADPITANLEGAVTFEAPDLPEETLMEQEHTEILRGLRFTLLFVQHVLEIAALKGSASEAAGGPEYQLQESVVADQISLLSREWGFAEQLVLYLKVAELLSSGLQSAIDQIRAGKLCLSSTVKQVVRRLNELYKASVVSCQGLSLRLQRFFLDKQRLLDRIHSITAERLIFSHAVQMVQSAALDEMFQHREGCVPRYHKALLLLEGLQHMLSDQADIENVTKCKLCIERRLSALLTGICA
Briefly: Agonist activity at ULK1 (unknown origin) at 100 nM incubated for 60 mins in presence of ATP by ADP-glo assay relative to control. The note with it: filed as agonist.

The test system of the next assay is MDA-MB-231. Briefly: Antiproliferative activity against human MDA-MB-231 cells assessed reduction in cell viability incubated for 24 hrs by MTT assay. It counts as functional, cell-based. The note with it: MDA-MB-231, 24 h. A general note: Tetrazolium assays rely on reduction of a dye to a coloured formazan, in cell work by metabolically active cells.

As to `N#Cc1c(O)c2c(-c3ccccc3)csc2[nH]c1=O`, the EC50 in assay [1] was 38 µM. As to `COc1ccccc1/C=C/C(=O)/C=C/c1ccccc1OC`, a half-maximal effect at Transcription factor EB (EC50) was put at 2.17 µM.

In turn, `Cc1[nH]c2ccccc2c1CCNCc1ccc(/C=C/C(=O)NO)cc1` [PANOBINOSTAT] yielded an EC50 at Forkhead box protein O1 of 0.42 µM. As to `CC(C)CN(CC(=O)N1CCN(CC(OCc2ccc3ccccc3c2)c2ccc(Cl)cc2Cl)CC1)CC(C)C` (stereo not drawn), the Activity in assay [2] was determined as 196%. `COC(=O)Nc1nc2cc(C(=O)c3ccc(F)cc3)ccc2[nH]1` [FLUBENDAZOLE]: the IC50 with MDA-MB-231 turned out to be 0.75 µM. `N#Cc1c(O)c2c(-c3ccc(-c4ccccc4O)cc3)csc2[nH]c1=O`: the EC50 in assay [1] worked out at 0.8 µM. As to `CC(C)(C)OC(=O)N1CCN(CC(OCc2ccc3ccccc3c2)c2ccc(Cl)cc2Cl)CC1` (stereo not drawn), the IC50 in the assay with MDA-MB-231 is 20.9 µM. Also, the Activity in assay [2] is 154%.
